Laboratory results taken from patent publication USRE39616E1, “Aminoindan derivatives” (priority 1996, dated 2007).
Like-named read-outs stand apart in the source and are kept apart here.

Experiments:
[1] = target: T1, Human erythrocyte acetylcholinesterase (Homo sapiens, UniProt P22303); assay: biochemical; type: biochemical
T1 construct: Human erythrocyte acetylcholinesterase (type XIII, Sigma Israel); purchased Sigma Israel type XIII; host or cells: human erythrocytes
Description: Human erythrocyte acetylcholinesterase (type XIII, Sigma Israel), was prepared in a stock solution of 1 U/ml, containing Triton (1%) and bovine serum albumin (0.05%) in phosphate buffer (pH 8). The enzyme (0.05U) was incubated with 3-5 different concentrations of test compound (in triplicate) for periods of from 15 to 60 minutes at 37° C. […] The percentage inhibition of AChE by each concentration of drug is calculated by comparison with that of enzyme in the absence of drug.

[2] = target: T2, whole brain AChE (Mus musculus, UniProt P21836); settings: for AChE Inhibition Ex vivo ED50 (AC): mice, whole brain, at peak of activity
T2 sequence (P21836 32-614): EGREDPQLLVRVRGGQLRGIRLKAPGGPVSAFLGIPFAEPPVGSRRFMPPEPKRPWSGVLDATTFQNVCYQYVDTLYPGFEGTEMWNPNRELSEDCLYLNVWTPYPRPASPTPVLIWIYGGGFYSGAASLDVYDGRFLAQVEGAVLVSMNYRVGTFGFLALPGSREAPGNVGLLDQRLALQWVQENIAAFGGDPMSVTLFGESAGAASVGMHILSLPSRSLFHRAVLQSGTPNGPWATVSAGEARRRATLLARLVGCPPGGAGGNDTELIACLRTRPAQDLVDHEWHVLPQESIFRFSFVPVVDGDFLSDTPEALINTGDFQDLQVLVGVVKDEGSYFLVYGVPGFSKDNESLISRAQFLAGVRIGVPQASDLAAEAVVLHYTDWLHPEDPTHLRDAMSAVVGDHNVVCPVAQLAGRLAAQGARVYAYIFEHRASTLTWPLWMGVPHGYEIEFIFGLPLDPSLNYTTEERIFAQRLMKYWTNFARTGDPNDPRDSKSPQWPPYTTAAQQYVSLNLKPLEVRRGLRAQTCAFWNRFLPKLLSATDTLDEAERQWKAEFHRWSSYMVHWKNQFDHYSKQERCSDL

[3] = tested on: mice; settings: mouse, in vivo
Description: Therapeutic Ratio was calculated as LD50 divided by ED50 of ex vivo acetylcholine esterase inhibition.

[4] = target: T3, MAO-A (Rattus norvegicus, UniProt P21396); assay: Inhibition of MAO activity in vitro, 5-HT as substrate; type: biochemical; parameters: The MAO enzyme source was a homogenate of rat brain in 0.3M sucrose; from tissue; host or cells: rat brain homogenate, 600 g supernatant; settings: 5-HT substrate
T3 sequence (P21396 1-526): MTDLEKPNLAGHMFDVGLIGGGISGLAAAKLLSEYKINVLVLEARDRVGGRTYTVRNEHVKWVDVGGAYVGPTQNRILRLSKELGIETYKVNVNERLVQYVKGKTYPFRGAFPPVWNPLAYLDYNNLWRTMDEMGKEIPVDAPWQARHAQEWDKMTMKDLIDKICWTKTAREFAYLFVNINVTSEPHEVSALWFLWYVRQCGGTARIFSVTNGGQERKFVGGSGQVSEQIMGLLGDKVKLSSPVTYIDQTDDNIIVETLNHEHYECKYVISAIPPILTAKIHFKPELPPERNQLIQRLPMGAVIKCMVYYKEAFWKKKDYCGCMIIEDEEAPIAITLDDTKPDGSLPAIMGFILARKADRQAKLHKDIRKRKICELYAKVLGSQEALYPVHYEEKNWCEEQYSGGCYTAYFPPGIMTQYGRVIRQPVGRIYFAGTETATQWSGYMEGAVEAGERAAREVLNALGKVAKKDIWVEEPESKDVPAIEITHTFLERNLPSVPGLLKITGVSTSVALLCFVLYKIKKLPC
Description: (§1) Substrate concentrations used were 50 μM (PEA) and 1 mM (5-HT).

[5] = target: T4, MAO-B (Rattus norvegicus, UniProt P19643); assay: Inhibition of MAO activity in vitro, PEA as substrate; type: biochemical; parameters: The MAO enzyme source was a homogenate of rat brain in 0.3M sucrose; from tissue; host or cells: rat brain homogenate, 600 g supernatant
T4 sequence (P19643 1-520): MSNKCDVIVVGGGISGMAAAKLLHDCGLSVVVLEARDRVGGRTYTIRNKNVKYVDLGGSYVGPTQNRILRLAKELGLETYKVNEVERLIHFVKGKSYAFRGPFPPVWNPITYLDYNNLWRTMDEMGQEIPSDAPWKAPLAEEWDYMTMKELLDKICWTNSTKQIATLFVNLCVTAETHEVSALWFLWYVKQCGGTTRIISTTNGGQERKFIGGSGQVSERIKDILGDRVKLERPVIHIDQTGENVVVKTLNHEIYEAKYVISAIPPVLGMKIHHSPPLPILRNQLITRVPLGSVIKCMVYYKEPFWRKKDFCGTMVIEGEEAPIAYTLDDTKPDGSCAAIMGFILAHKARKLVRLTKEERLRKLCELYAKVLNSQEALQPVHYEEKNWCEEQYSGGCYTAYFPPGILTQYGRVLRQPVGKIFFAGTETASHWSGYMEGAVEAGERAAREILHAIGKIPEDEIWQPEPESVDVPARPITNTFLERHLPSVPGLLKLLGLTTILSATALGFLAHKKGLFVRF
Description: as §1

[6] = target: T5, MAO-A (Mus musculus, UniProt Q64133); assay: Inhibition of MAO activity ex vivo (brain); type: in vivo, mice; settings: mice, brain tissue
T5 construct: from tissue; host or cells: mouse brain
T5 sequence (Q64133 1-526): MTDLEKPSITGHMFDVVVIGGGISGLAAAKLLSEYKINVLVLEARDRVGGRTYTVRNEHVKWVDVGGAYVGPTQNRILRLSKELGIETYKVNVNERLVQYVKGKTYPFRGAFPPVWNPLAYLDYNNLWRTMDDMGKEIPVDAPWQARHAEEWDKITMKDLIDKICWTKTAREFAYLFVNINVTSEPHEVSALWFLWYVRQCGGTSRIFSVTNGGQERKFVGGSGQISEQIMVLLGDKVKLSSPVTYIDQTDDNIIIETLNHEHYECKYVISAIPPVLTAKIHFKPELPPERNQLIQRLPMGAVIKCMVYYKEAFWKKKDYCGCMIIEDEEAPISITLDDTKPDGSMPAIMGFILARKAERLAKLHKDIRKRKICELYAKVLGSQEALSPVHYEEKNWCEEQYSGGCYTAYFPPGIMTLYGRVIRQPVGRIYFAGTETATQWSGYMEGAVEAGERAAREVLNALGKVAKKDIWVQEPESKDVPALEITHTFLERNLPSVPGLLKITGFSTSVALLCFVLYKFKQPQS
Description: as §1
(§2) Male Sabra mice, weighing 45-50 g were injected with test compound solutions (prepared in 0.9% saline). Each dose was administered to two or three mice. The mice were sacrificed two hours after drug administration or at a time corresponding to the peak AChE inhibition time (see Table 11). The brain and liver were rapidly dissected and stored in appropriate vials on ice. The tissues were weighed, diluted to ½ in sucrose 0.3M and stored at −20° C. before performance of the MAO assay described above. The results given in Table 11 relate to measurements made on brain tissue only.

[7] = target: T6, MAO-B (Mus musculus, UniProt Q8BW75); assay: Inhibition of MAO activity ex vivo (brain); type: in vivo, mice; settings: mice, brain tissue
T6 construct: from tissue; host or cells: mouse brain
T6 sequence (Q8BW75 1-520): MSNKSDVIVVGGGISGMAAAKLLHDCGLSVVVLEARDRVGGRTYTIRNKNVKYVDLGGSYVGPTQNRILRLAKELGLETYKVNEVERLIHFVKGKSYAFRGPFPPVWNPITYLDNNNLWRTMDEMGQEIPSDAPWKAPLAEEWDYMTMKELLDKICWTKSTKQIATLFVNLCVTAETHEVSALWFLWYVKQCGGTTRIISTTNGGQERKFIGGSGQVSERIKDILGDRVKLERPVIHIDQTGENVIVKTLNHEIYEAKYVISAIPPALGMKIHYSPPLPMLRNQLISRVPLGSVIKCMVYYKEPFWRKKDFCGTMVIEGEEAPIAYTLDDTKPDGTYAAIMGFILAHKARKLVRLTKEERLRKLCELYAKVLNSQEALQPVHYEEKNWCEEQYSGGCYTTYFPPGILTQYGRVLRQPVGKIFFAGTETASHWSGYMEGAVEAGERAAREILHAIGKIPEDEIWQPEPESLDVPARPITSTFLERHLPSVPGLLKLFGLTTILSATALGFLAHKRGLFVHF
Description: as §1, §2

[8] = MAO-A Inhibition In vitro IC50, rat brain homogenate
[9] = MAO-B Inhibition In vitro IC50, rat brain homogenate
[10] = rat brain homogenate, read-out: MAO-B Inhibition In vitro IC50

T1 sequence (P22303 32-617 isoform P22303-2 limits assumed): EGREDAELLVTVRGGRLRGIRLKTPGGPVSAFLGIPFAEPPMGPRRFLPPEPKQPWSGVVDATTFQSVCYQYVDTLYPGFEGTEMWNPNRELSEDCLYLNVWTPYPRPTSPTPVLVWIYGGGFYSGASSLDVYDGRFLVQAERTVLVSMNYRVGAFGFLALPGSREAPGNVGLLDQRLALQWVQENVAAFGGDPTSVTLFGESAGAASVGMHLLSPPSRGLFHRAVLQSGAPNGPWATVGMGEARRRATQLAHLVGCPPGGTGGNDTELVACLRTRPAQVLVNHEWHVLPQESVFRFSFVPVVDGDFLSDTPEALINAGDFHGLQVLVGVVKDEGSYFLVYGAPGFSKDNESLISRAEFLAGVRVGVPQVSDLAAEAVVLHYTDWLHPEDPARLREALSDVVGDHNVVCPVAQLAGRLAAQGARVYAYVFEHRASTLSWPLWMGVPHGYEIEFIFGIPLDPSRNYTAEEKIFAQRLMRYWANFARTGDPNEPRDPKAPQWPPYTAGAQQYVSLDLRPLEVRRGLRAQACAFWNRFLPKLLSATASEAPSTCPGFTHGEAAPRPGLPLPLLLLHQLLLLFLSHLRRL

Compound | IC50 ([1]; AChE Inhibition In vitro IC50) | AChE Inhibition Ex vivo ED50 (AC) [2] | AChE Inhibition Time to peak activity t ([2]; mouse, in vivo) | Acute Toxicity LD50 (LD) [3] | Therapeutic Ratio LD/AC [3] | IC50 [4, 8] | IC50 [5, 9] | MAO-A Inhibition Ex vivo ED50 [6] | MAO-B Inhibition Ex vivo ED50 [7] | IC50 ([1]; read-out: AChE Inhibition In vitro IC50) | IC50 [5, 10] | IC50 ([4]; rat brain homogenate, read-out: MAO-A Inhibition In vitro IC50) | AChE Inhibition Time to return to 50% of peak t ([2]; mouse, in vivo)
C#CCNC1CCc2c(OC(=O)N(C)C)cccc21 (stereo not drawn) [Compound 34] | 0.046 µM | 0.65 µmol/kg | 30 min | 3.7 µmol/kg | 5.7 | 0.5 µM | 100 µM | – | – | – | – | – | –
C#CCNC1CCc2ccc(OC(=O)N(C)CCC)cc21 (stereo not drawn) [Compound 26] | 17 µM | 120 µmol/kg | 30 to 60 min | 1200 µmol/kg | 9 | 114 µM | 264 µM | >>440 μmoles/kg | 333 µmol/kg | – | – | – | –
C#CCNC1CCc2ccc(OC(=O)NCCC)cc21 (stereo not drawn) [Compound 57] | – | 70 µmol/kg | – | – | – | 89 µM | – | – | – | 2.4 µM | 25 µM | – | –
CCNC1CCc2ccc(OC(=O)N(C)C)cc21 (stereo not drawn) [Compound 7] | – | – | – | – | – | 600 µM | > 1000 µM | – | – | – | – | – | –
C#CCNC1CCc2ccc(OC(=O)N(C)Cc3ccccc3)cc21 (stereo not drawn) [Compound 63] | 2.5 µM | 140 µmol/kg | 60 to 90 min | 1300 µmol/kg | 9.3 | – | – | >300 µmol/kg | >300 µmol/kg | – | 120 µM | 40 µM | –
C#CCNC1CCc2ccc(OC(=O)N(C)C)cc21 (stereo not drawn) [Compound 23] | – | 22.4 µmol/kg | – | 255 µmol/kg | – | 800 µM | 600 µM | – | – | – | – | – | 70 min
